Blank lines part the entries; values can stand above or below the compound they belong to. The source made the active and inactive calls.
Experiments:
Large T antigen = Large T antigen (Simian virus 40, UniProt P03070); format: functional, Betapolyomavirus macacae;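 note: Confirmatory-stage PubChem screen for compounds that inhibit SV40 T antigen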
[1] = molecular target: Induced myeloid leukemia cell differentiation protein Mcl-1 (Homo sapiens, UniProt Q07820); format: functional
Paired box protein Pax-8 = Paired box protein Pax-8 (Homo sapiens, UniProt Q06710); test: PAX8 transcriptional activity inhibition in RMG-I – RMG-I cells, luciferase, cherry-pick, dose response (AID 687027); format: functional, cell-based;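 note: luciferase reporter driven by Pax8 target thyroperoxidase promoter measured by SteadyGlo luminescence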
[2] = NIH-3T3 fibroblast cytotoxicity, dose response, cytotoxicity control, cell-based, fluorescence, Alamar Blue, secondary assay (AID 2327); format: functional;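 note: NIH-3T3 mouse fibroblasts cultured with fluconazole at 8 µg/mL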
[3] = molecular target: T1, Short transient receptor potential channel 4 (Mus musculus, UniProt Q9QUQ5); test: block of DAMGO-driven TRPC4 calcium entry – cell-based, HEK293 TRPC4/mu-opioid, Fluo-4 calcium, dose response (AID 434942); format: functional;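 note: potency of inhibitors blocking the TRPC4 calcium response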
T1 sequence (Q9QUQ5 whole entry): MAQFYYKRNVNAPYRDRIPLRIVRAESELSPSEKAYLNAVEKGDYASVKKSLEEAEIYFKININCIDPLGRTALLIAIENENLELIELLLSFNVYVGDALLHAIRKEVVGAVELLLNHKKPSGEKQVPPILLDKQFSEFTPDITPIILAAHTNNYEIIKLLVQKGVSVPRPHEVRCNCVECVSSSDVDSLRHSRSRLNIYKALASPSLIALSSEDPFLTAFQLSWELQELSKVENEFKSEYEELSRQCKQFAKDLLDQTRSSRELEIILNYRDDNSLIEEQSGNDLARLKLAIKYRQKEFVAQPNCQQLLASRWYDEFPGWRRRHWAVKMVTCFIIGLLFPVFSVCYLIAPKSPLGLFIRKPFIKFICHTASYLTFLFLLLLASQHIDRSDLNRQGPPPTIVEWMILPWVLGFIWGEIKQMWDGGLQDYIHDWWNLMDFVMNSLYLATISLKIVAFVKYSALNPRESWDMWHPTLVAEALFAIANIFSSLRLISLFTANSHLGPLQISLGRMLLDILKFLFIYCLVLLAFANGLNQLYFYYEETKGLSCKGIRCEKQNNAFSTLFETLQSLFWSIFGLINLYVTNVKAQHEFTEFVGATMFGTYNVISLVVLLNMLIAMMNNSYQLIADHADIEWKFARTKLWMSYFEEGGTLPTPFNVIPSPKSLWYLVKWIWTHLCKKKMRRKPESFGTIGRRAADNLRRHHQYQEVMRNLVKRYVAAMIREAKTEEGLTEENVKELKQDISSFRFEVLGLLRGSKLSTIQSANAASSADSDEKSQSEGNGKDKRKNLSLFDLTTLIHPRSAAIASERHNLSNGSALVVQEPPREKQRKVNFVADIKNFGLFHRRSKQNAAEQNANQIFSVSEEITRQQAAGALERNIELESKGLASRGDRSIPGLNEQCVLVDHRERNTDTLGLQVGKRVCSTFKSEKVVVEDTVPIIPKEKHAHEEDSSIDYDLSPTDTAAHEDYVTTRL

Cytochrome P450 2C19 = Cytochrome P450 2C19 (Homo sapiens, UniProt P33261); test: Cytochrome panel assay with activity outcomes. Panel member name: p450-cyp2c19 Compounds with AC50 equal or less than 10 uM are considered active; format: functional; settings: read-out: AC50
Fatty acid synthase [4] = molecular target: T2, Fatty acid synthase (Homo sapiens, UniProt P49327); test: inhibition of human FAS-TE enzyme activity – biochemical, endpoint fluorescence intensity, uHTS hits, dose response (AID 624327); format: functional;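 note: fluorescence from hydrolysis of an O-methyl fluorescein acyl ester substrate by the enzyme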
Fatty acid synthase [5] = molecular target: T2, Fatty acid synthase; test: inhibition of human FAS-TE enzyme activity – biochemical, kinetic fluorescence intensity, dose response (AID 624326); format: functional;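 note: rate of fluorescence rise from hydrolysis of a fluorogenic O-methyl fluorescein ester substrate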
[6] = NIH3T3 cell viability loss – ATP luminescence, mouse fibroblasts, counter-screen, dose response (AID 2010); format: functional, cell-based;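 note: cells exposed to compound for about 90 hours before reading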
[7] = Trypanosoma cruzi growth suppression in host cells – NIH3T3 host cells, beta-gal luminescence, confirmation (AID 2044); format: functional, cell-based;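 note: intracellular parasites grown in NIH/3T3 mouse fibroblasts as host cells; luminescent beta-galactosidase reporter signal from transgenic T. cruzi replicating inside host cells; inhibitors lower the luminescence signal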
[8] = molecular target: T3, Heat shock factor protein 1 (Mus musculus, UniProt P38532); test: enhancement of HSF1-driven luciferase signal – cell-based, NIH3T3, luminescence, dose retest, confirmation (AID 435004); format: functional;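 note: stress induced by proteasome inhibitor MG132 added 30 min after compound; luciferase reporter driven by HSF1 response element in NIH3T3 cells; actives raise luminescence as potentiators of the MG132 stress response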
T3 sequence (P38532 whole entry): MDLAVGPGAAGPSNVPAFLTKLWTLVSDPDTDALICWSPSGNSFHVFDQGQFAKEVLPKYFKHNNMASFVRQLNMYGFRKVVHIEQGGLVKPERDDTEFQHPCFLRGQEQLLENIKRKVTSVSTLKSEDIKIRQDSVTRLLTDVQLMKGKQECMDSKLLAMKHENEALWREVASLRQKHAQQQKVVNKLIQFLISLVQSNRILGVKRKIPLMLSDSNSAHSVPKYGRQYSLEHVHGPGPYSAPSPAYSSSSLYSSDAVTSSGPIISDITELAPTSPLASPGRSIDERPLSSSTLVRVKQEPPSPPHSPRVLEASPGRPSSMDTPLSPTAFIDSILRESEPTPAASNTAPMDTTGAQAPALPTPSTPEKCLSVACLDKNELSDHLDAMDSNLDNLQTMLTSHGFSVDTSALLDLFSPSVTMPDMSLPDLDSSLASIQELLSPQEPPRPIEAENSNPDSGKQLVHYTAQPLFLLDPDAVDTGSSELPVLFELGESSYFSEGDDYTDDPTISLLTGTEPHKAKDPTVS

Protein skinhead-1 = molecular target: T4, Protein skinhead-1 (Caenorhabditis elegans, UniProt P34707); format: functional
T4 sequence (P34707 whole entry): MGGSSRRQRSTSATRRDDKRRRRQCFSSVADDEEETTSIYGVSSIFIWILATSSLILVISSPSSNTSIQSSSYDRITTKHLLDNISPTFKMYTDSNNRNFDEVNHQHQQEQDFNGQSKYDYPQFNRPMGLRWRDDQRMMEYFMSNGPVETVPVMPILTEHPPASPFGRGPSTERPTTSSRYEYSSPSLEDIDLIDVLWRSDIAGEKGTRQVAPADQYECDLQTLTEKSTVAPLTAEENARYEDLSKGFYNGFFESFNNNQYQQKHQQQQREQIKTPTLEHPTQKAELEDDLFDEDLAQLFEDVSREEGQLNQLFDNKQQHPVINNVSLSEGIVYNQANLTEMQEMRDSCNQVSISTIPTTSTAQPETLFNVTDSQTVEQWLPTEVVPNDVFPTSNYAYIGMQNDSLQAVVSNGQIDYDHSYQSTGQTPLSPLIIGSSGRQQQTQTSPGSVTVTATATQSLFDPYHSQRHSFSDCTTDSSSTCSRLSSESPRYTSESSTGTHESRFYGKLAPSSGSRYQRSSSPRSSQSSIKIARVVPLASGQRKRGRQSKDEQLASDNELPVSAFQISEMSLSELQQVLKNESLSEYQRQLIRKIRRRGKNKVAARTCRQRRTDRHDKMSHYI

T2 sequence (P49327 whole entry): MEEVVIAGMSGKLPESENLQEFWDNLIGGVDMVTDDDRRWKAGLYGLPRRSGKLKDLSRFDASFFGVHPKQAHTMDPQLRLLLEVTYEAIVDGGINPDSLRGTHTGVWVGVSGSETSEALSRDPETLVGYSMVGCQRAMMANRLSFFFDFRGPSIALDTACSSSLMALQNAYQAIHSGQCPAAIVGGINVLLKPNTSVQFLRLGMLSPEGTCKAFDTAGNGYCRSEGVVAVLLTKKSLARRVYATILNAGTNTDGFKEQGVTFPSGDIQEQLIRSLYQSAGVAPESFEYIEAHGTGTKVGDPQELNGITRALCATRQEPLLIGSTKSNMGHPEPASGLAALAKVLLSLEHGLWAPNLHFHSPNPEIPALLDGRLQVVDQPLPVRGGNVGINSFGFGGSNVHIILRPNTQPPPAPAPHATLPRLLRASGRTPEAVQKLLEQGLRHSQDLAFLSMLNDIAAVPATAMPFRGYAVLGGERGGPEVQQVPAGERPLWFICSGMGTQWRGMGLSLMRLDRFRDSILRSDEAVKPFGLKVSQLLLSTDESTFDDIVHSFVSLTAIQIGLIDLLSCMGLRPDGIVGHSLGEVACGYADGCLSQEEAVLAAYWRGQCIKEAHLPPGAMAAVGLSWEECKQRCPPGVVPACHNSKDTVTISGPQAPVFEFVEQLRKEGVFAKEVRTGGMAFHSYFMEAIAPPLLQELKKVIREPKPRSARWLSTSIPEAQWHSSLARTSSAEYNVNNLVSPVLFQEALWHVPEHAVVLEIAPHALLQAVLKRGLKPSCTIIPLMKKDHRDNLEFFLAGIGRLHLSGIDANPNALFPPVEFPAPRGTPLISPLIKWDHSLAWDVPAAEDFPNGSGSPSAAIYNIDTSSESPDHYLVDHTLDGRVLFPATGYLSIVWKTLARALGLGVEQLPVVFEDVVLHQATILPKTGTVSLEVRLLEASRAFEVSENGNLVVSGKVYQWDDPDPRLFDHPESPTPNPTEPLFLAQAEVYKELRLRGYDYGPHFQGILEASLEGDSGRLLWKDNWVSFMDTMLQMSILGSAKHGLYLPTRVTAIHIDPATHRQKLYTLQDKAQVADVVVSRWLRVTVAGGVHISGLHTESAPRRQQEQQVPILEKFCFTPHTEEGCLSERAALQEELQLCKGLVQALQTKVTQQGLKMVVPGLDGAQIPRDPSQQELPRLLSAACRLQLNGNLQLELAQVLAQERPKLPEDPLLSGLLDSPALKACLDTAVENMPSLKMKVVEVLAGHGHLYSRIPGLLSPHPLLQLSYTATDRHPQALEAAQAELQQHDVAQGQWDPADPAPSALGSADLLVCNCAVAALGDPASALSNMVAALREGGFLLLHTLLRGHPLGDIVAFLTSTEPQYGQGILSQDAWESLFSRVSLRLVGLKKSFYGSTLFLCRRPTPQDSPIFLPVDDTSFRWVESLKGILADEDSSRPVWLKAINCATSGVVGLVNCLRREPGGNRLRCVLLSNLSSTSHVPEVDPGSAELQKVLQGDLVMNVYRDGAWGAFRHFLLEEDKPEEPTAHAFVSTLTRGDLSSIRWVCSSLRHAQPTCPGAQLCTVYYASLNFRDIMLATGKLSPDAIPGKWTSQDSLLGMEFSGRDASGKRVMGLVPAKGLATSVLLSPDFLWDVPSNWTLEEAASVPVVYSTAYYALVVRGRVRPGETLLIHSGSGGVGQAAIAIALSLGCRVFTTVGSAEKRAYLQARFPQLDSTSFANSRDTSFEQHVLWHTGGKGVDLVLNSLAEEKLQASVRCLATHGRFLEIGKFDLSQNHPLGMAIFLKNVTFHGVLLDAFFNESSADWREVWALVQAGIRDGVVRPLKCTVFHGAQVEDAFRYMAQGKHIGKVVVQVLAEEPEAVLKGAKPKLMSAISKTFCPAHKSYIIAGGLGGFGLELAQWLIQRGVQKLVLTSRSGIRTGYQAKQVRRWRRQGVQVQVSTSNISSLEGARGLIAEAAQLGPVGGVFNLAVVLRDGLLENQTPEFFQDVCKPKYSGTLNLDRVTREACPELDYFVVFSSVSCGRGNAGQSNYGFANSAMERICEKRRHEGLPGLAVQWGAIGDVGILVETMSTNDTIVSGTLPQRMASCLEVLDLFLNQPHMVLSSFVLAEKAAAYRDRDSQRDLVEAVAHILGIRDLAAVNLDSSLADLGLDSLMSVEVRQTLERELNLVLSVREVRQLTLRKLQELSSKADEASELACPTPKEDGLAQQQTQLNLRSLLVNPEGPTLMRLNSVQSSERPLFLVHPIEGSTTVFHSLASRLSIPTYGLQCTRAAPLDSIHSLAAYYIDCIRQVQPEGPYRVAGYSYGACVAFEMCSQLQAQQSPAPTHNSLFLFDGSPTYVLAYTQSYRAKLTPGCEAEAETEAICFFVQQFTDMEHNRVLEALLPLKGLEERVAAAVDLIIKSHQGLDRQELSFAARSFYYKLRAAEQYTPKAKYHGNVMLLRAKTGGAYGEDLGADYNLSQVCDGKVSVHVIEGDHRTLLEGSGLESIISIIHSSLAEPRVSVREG
Sequence of Induced myeloid leukemia cell differentiation protein Mcl-1 (Q07820 whole entry): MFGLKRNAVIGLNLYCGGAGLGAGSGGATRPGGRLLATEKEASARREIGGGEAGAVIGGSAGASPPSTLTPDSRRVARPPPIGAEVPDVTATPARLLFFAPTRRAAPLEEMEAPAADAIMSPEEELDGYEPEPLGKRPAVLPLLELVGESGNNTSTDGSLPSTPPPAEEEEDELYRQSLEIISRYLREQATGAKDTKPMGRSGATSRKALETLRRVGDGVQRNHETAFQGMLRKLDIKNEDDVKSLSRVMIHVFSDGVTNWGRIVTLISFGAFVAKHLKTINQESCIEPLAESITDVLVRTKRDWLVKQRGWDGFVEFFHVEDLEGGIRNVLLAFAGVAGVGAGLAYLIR
Sequence of Large T antigen (P03070 whole entry): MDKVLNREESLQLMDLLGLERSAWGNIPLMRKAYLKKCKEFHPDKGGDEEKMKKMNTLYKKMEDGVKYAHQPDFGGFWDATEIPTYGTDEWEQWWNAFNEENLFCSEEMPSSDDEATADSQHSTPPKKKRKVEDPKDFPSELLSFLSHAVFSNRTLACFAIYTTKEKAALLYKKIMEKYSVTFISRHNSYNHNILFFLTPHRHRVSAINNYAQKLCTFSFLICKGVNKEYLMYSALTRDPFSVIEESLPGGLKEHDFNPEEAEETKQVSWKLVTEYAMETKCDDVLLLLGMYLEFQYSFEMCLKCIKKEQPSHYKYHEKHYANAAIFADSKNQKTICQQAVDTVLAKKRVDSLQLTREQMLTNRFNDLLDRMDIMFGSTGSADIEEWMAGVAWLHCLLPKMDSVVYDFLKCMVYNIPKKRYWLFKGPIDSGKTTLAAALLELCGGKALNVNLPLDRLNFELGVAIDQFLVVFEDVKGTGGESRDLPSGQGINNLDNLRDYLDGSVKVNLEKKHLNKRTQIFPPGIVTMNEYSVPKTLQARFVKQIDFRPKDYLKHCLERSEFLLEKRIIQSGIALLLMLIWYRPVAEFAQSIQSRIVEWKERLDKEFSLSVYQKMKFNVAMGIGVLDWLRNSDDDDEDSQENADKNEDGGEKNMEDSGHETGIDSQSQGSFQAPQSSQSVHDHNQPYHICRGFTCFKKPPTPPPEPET
Sequence of Paired box protein Pax-8 (Q06710 whole entry): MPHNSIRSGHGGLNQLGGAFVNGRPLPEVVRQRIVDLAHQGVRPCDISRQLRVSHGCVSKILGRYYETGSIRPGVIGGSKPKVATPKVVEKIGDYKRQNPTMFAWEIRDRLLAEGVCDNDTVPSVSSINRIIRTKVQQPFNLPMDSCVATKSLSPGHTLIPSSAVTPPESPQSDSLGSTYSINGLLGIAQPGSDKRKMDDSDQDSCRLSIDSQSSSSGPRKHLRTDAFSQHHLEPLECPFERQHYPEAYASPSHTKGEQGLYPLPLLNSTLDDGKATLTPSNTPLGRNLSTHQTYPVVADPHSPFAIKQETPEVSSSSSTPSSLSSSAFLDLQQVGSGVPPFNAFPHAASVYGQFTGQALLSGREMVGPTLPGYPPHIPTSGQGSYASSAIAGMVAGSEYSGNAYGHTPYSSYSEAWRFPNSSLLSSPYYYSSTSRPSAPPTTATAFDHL
Sequence of Cytochrome P450 2C19 (P33261 whole entry): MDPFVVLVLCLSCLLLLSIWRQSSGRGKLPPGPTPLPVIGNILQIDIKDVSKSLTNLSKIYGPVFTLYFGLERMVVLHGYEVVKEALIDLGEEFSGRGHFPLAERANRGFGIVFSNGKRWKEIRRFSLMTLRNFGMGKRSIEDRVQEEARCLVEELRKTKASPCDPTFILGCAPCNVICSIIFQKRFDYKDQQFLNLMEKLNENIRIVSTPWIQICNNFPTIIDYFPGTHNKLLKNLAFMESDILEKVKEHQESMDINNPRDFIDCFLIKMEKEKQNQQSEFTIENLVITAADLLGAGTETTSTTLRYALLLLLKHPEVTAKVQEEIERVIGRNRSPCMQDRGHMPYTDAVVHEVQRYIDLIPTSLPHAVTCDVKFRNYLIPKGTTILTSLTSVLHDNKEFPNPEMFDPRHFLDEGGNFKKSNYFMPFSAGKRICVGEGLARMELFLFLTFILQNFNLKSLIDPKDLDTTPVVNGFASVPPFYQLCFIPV

- IC50 (Large T antigen): 9.69 µM (active)
Compound: O=S(=O)(c1ccc(NC(=S)N2CCN(c3ccc(O)cc3)CC2)cc1)N1CCOCC1

- EC50 [3]: 4.73 µM (active)
Compound: CCCc1nc(SC2CCCC2)c2c(=O)n(C)c(=O)n(C)c2n1

- IC50 (Large T antigen): 19.3 µM (active)
Compound: CN(C)c1ccc(C(=O)c2ccc(N(C)C)c(N)c2)cc1N

- IC50 [1]: 7.06 µM (not active)
Compound: Cc1ccc(C(=O)Nc2ccc(N3CCCC3)cc2)c(C)c1

- AC50 (Cytochrome P450 2C19): 3.98 µM (inconclusive)
- IC50 [1]: 28.3 µM (not active)
Compound: CCCCCc1nc2c(O)nc3ccccc3c2o1

- IC50 (Protein skinhead-1): > 100 µM (inactive)
- EC50 [3]: 5.31 µM (active)
Compound: CC1CCN(C(C)C(=O)Nc2ccccc2-c2ccccc2)CC1 (stereo not drawn)

- EC50 [3]: 2.11 µM (active)
Compound: CC(C)Cc1cc(CN2CCCC(CO)(Cc3cccc(Cl)c3)C2)[nH]n1 (stereo not drawn)

Second part, the compound before the results:

Compound: Cc1cccc(NC(=O)CN2C(=O)N/C(=C/c3ccc(C)o3)C2=O)c1
- IC50 [1]: < 0.4 µM (not active)

Compound: CCc1ccc(CNC(=O)C2CCCN(c3nnc(C)c4c(C)n(-c5ccccc5)nc34)C2)cc1 (stereo not drawn)
- AC50 (Paired box protein Pax-8): 9.17 µM (active)
- EC50 [2]: 14.7 µM (inconclusive)

Compound: Cc1c(C(=O)OCCOc2ccc(Br)cc2)sc(=S)n1C
- IC50 (Fatty acid synthase [4]): 7.07 µM (active)
- IC50 (Fatty acid synthase [5]): 5.67 µM (active)

Compound: O=C(Nc1ccccc1N1CCN(C(=O)c2ccc(Cl)cc2)CC1)c1cccc([N+](=O)[O-])c1
- EC50 [3]: 0.376 µM (active)
- EC50 [6]: > 60 µM (not active)
- EC50 [7]: 1.34 µM (active)
- EC50 [8]: > 260 µM (inactive)

Compound: C[C@@]12C(=O)Nc3cc(F)ccc3C(=O)N1[C@H]1c3ccccc3OC[C@@H]1[C@@H]2c1ccccc1
- IC50 (Fatty acid synthase [4]): 18.1 µM (active)
- IC50 (Fatty acid synthase [5]): 20.3 µM (inactive)

Compound: CCn1nc(C)c(CN2CCCC(CO)(Cc3cccc(Cl)c3)C2)c1C (stereo not drawn)
- EC50 [3]: 1.06 µM (active)
- EC50 [6]: > 30 µM (not active)
- EC50 [7]: 0.247 µM (active)

— ChEMBL document CHEMBL1201862, “PubChem BioAssay data set” (2004)
